Assay results from PMC7523345 (Investigational new drugs, 2018).
“Also recorded” adds a separate entry of the source.

Assay: Phase I dose escalation study: safety, tolerability, DLT and MTD
Type: in vivo

Cc1cccc2c1NC(=O)[C@@H](NC(=O)[C@H](CCC(F)(F)F)[C@H](CCC(F)(F)F)C(N)=O)N=C2c1cccc(F)c1 [BMS-986115]
Hypokalaemia (drug related AE, Grade 3 and 4) (Arm B BIW 4 mg (N = 2)): 0 n (%)
Hypokalaemia (drug related AE, all grades) (Arm B BIW 4 mg (N = 2)): 1 (50) n (%)
Hyponatraemia (drug related AE, Grade 3 and 4) (Arm B BIW 4 mg (N = 2)): 0 n (%)
Hyponatraemia (drug related AE, all grades) (Arm B BIW 4 mg (N = 2)): 0 n (%)
Hypophosphataemia (drug related AE, Grade 3 and 4) (Arm B BIW 4 mg (N = 2)): 1 (50) n (%)
Hypophosphataemia (drug related AE, all grades) (Arm B BIW 4 mg (N = 2)): 1 (50) n (%)
Ileus (drug related AE, Grade 3 and 4) (Arm B BIW 4 mg (N = 2)): 0 n (%)
Increased upper airway secretion (drug related AE, all grades) (Arm B BIW 4 mg (N = 2)): 1 (50) n (%)
Laryngeal pain (drug related AE, all grades) (Arm B BIW 4 mg (N = 2)): 0 n (%)
Leucocytosis (drug related AE, Grade 3 and 4) (Arm B BIW 4 mg (N = 2)): 0 n (%)
Mouth ulceration (drug related AE, all grades) (Arm B BIW 4 mg (N = 2)): 0 n (%)
Nausea (drug related AE, Grade 3 and 4) (Arm B BIW 4 mg (N = 2)): 0 n (%)
Nausea (drug related AE, all grades) (Arm B BIW 4 mg (N = 2)): 0 n (%)
Pruritus (drug related AE, Grade 3 and 4) (Arm B BIW 4 mg (N = 2)): 0 n (%)
Pruritus (drug related AE, all grades) (Arm B BIW 4 mg (N = 2)): 1 (50) n (%)
Pulmonary embolism (drug related AE, Grade 3 and 4) (Arm B BIW 4 mg (N = 2)): 0 n (%)
Rash (drug related AE, all grades) (Arm B BIW 4 mg (N = 2)): 0 n (%)
Rash maculopapular (drug related AE, all grades) (Arm B BIW 4 mg (N = 2)): 1 (50) n (%)
Sinusitis (drug related AE, all grades) (Arm B BIW 4 mg (N = 2)): 0 n (%)
Urticaria (drug related AE, Grade 3 and 4) (Arm B BIW 4 mg (N = 2)): 0 n (%)
Vision blurred (drug related AE, all grades) (Arm B BIW 4 mg (N = 2)): 0 n (%)
Vomiting (drug related AE, Grade 3 and 4) (Arm B BIW 4 mg (N = 2)): 0 n (%)
Vomiting (drug related AE, all grades) (Arm B BIW 4 mg (N = 2)): 0 n (%)
Weight decreased (drug related AE, all grades) (Arm B BIW 4 mg (N = 2)): 0 n (%)
Description of DLT (Arm B BIW 8 mg): Gr 3 diarrhoea; Gr 3 nausea/dehydration/anorexia with Gr 2 fatigue; also recorded: G3 diarrhoea; also recorded: G3 nausea/dehydration/anorexia
Description of study drug toxicity that led to treatment discontinuation (Arm B BIW 8 mg): G3 Diarrhoea (N = 1); also recorded: G3 Dehydration and anorexia (N = 1)
Abdominal distension (drug related AE, all grades) (Arm B BIW 8 mg (N = 8)): 0 n (%)
Abdominal pain (drug related AE, Grade 3 and 4) (Arm B BIW 8 mg (N = 8)): 0 n (%)
Abdominal pain (drug related AE, all grades) (Arm B BIW 8 mg (N = 8)): 0 n (%)
Blood creatinine increased (drug related AE, all grades) (Arm B BIW 8 mg (N = 8)): 1 (13) n (%)
Colitis (drug related AE, Grade 3 and 4) (Arm B BIW 8 mg (N = 8)): 0 n (%)
Cough (drug related AE, Grade 3 and 4) (Arm B BIW 8 mg (N = 8)): 0 n (%)
Cough (drug related AE, all grades) (Arm B BIW 8 mg (N = 8)): 1 (13) n (%)
Decreased Appetite (drug related AE, Grade 3 and 4) (Arm B BIW 8 mg (N = 8)): 1 (13) n (%)
Decreased Appetite (drug related AE, all grades) (Arm B BIW 8 mg (N = 8)): 5 (63) n (%)
Dehydration (drug related AE, Grade 3 and 4) (Arm B BIW 8 mg (N = 8)): 1 (13) n (%)
Dehydration (drug related AE, all grades) (Arm B BIW 8 mg (N = 8)): 2 (25) n (%)
Dermatitis acneiform (drug related AE, all grades) (Arm B BIW 8 mg (N = 8)): 0 n (%)
Diarrhoea (drug related AE, Grade 3 and 4) (Arm B BIW 8 mg (N = 8)): 2 (25) n (%)
Diarrhoea (drug related AE, all grades) (Arm B BIW 8 mg (N = 8)): 7 (88) n (%)
Dry mouth (drug related AE, all grades) (Arm B BIW 8 mg (N = 8)): 1 (13) n (%)
Dry skin (drug related AE, all grades) (Arm B BIW 8 mg (N = 8)): 2 (25) n (%)
Dysgeusia (drug related AE, all grades) (Arm B BIW 8 mg (N = 8)): 1 (13) n (%)
Dyspepsia (drug related AE, all grades) (Arm B BIW 8 mg (N = 8)): 0 n (%)
Dysphonia (drug related AE, all grades) (Arm B BIW 8 mg (N = 8)): 1 (13) n (%)
Fatigue (drug related AE, Grade 3 and 4) (Arm B BIW 8 mg (N = 8)): 0 n (%)
Fatigue (drug related AE, all grades) (Arm B BIW 8 mg (N = 8)): 4 (50) n (%)
Flatulence (drug related AE, all grades) (Arm B BIW 8 mg (N = 8)): 2 (25) n (%)
Hypocalcaemia (drug related AE, Grade 3 and 4) (Arm B BIW 8 mg (N = 8)): 1 (13) n (%)
Hypocalcaemia (drug related AE, all grades) (Arm B BIW 8 mg (N = 8)): 1 (13) n (%)
Hypokalaemia (drug related AE, Grade 3 and 4) (Arm B BIW 8 mg (N = 8)): 0 n (%)
Hypokalaemia (drug related AE, all grades) (Arm B BIW 8 mg (N = 8)): 2 (25) n (%)
Hyponatraemia (drug related AE, Grade 3 and 4) (Arm B BIW 8 mg (N = 8)): 1 (13) n (%)
Hyponatraemia (drug related AE, all grades) (Arm B BIW 8 mg (N = 8)): 1 (13) n (%)
Hypophosphataemia (drug related AE, Grade 3 and 4) (Arm B BIW 8 mg (N = 8)): 4 (50) n (%)
Hypophosphataemia (drug related AE, all grades) (Arm B BIW 8 mg (N = 8)): 5 (63) n (%)
Ileus (drug related AE, Grade 3 and 4) (Arm B BIW 8 mg (N = 8)): 0 n (%)
Increased upper airway secretion (drug related AE, all grades) (Arm B BIW 8 mg (N = 8)): 2 (25) n (%)
Laryngeal pain (drug related AE, all grades) (Arm B BIW 8 mg (N = 8)): 0 n (%)
Leucocytosis (drug related AE, Grade 3 and 4) (Arm B BIW 8 mg (N = 8)): 1 (13) n (%)
Mouth ulceration (drug related AE, all grades) (Arm B BIW 8 mg (N = 8)): 1 (13) n (%)
Nausea (drug related AE, Grade 3 and 4) (Arm B BIW 8 mg (N = 8)): 1 (13) n (%)
Nausea (drug related AE, all grades) (Arm B BIW 8 mg (N = 8)): 6 (75) n (%)
Pruritus (drug related AE, Grade 3 and 4) (Arm B BIW 8 mg (N = 8)): 0 n (%)
Pruritus (drug related AE, all grades) (Arm B BIW 8 mg (N = 8)): 2 (25) n (%)
Pulmonary embolism (drug related AE, Grade 3 and 4) (Arm B BIW 8 mg (N = 8)): 0 n (%)
Rash (drug related AE, all grades) (Arm B BIW 8 mg (N = 8)): 3 (38) n (%)
Rash maculopapular (drug related AE, all grades) (Arm B BIW 8 mg (N = 8)): 2 (25) n (%)
Sinusitis (drug related AE, all grades) (Arm B BIW 8 mg (N = 8)): 0 n (%)
Urticaria (drug related AE, Grade 3 and 4) (Arm B BIW 8 mg (N = 8)): 0 n (%)
